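Five compound concentrations were applied to cells in 96-well plates for 48 hours; endpoints were derived by simple linear interpolation of the resulting dose-response curve. At the GI50, growth is halved. Definition used: TGI = concentration required for complete inhibition of growth.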

The first assay concerns SF-539 CNS. The assay can be described thus: growth of human tumour cells (NCI), 48 h.
`COC(=O)/C(C=O)=C/Sc1ccccc1`: the TGI was determined as 33.2 µM.
`CC1(C)O/C(=C\c2ccccc2)C(=O)/C(=C/c2ccccc2)O1` came in with a TGI of more than 100 µM.
`N=C(N)SCc1cccc(-c2nc3ccccc3c(=O)o2)c1` had a TGI of more than 100 µM.
For `O=C1CC2C(=O)N(Cc3ccccc3)C1C=C2S(=O)(=O)c1ccccc1` (stereo not drawn), the TGI was more than 100 µM.
Regarding `COc1ccc(Nc2c3ccccc3nc3occ(Cl)c23)cc1`, the GI50 was less than 0.0167 µM and the TGI was 1.39 µM.
For `Cc1ccc(S(=O)(=O)NCCNc2nccc(-c3c(-c4ccc(F)cc4)nc4sccn34)n2)cc1`, the GI50 is 12.3 µM and the TGI stood at 31 µM.
Turning to `N.N.N.N.[Cl-].[Co+3].[N-]=[N+]=[N-].[N-]=[N+]=[N-]`, the GI50 is 48.8 µM and the TGI was more than 100 µM.
In the case of `CC(C)CCCC(C)[C@H]1CCC2[C@H]3C(CC[C@@]21C)[C@@]1(C)CCC=C[C@]12C[C@@H]2[C@@H]3O` (stereo partly drawn), the TGI is more than 100 µM.
Turning to `O=C(Nc1cc(Cl)ccc1Cl)C(=O)C(c1cnc2ccccc2n1)[N+](=O)[O-]` (stereo not drawn), the TGI was more than 100 µM.
Still for that read-out and setting: the same measure for `COC(=O)CCC(=O)CC1CC(=O)C2CCCN12` (stereo not drawn): more than 100 µM; for `COc1ccc(OC)c2c(/C=C/c3ccc(N(C)C)cc3)ccnc12`: 6.07 µM.
With `C=C1C(=O)O[C@H]2/C=C(/C)C3=CC(=O)[C@@](C)(C[C@@H](OC(=O)/C(C)=C\C)C12)O3` (stereo partly drawn), the TGI was 8.22 µM.
As for `O=S1OC2(c3ccccc3-c3ccccc32)c2ccccc21` (stereo not drawn), the TGI was more than 100 µM.
Consider `CCOC(=N)CC(=O)Nc1cccc(C)c1C`, for which the TGI is more than 100 µM.

Another assay deals with SK-MEL-2 melanoma. Description: growth of human tumour cells (NCI), 48 h.
In turn, `COc1cc2ccc3c4cc(OC)c(OC(C)C)cc4cnc3c2cc1OC` came in with a TGI of more than 100 µM.
Still for that read-out and setting: the value for `CN1NC(=Nc2ccccc2)Sc2c1cnn(-c1ccccc1)c2=O` was more than 100 µM; that for `CCOC(=O)c1c[nH]c2oc(/C=N/N3CC(CN4CCOCC4)OC3=O)cc2c1=O` (stereo not drawn) was more than 100 µM.
As to `O=C(Nc1ccc(-n2cc(-c3ccncc3)c(-c3ccc(Cl)c(O)c3)n2)cc1)Nc1ccc(Cl)c(C(F)(F)F)c1`, the GI50 is 1.7 µM and the TGI came to 3.27 µM.
`CC(=O)c1sc(-c2nc(C)c(C(=O)/C=C\c3ccc(/C=C\C(=O)c4sc(-c5nc(C)c(C(C)=O)s5)nc4C)cc3)s2)nc1C` yielded a TGI of more than 100 µM.
The compound `COC(=O)/C(C)=C/[N+](=O)[O-]` came in with a TGI of 38.7 µM.
For the compound `CC(C)OC(=O)NNc1cc(Cl)ccc1Cl`, the TGI is more than 100 µM.
Compound `CCCCOC(=O)NC(=O)c1cn(CCCOC(=O)NCCCCCCNC(=O)OCCCn2cc(C(=O)NC(=O)OCCCC)c(=O)[nH]c2=O)c(=O)[nH]c1=O` showed a TGI of more than 100 µM.
In the case of `COc1cc(C2=C(c3cn(C)c4ccccc34)COC2=O)cc(OC)c1OC`, the GI50 was 0.0562 µM and the TGI was found to be 18.5 µM.
With `COC(=O)/C(C=O)=C/Sc1ccccc1`, the TGI was found to be 91.8 µM.
As for `COc1ccc2c(c1)[C@@]13CCCC[C@H]1[C@@H](C2)N(C)CC3=O`, the TGI was found to be 53.9 µM.
For `CC1(C)O/C(=C\c2ccccc2)C(=O)/C(=C/c2ccccc2)O1`, the TGI amounted to 56.7 µM.
In the case of `N=C(N)SCc1cccc(-c2nc3ccccc3c(=O)o2)c1`, the TGI is more than 100 µM.
Turning to `Cc1ccc(S(=O)(=O)NCCNc2nccc(-c3c(-c4ccc(F)cc4)nc4sccn34)n2)cc1`, the GI50 is 7.55 µM and the TGI was determined as 38.2 µM.
Turning to `N.N.N.N.[Cl-].[Co+3].[N-]=[N+]=[N-].[N-]=[N+]=[N-]`, the GI50 is more than 100 µM and the TGI is more than 100 µM.
The compound `COC(=O)CCC(=O)CC1CC(=O)C2CCCN12` (stereo not drawn) yielded a TGI of more than 100 µM.
`COc1ccc(OC)c2c(/C=C/c3ccc(N(C)C)cc3)ccnc12` had a TGI of more than 10 µM.
In turn, `C=C1C(=O)O[C@H]2/C=C(/C)C3=CC(=O)[C@@](C)(C[C@@H](OC(=O)/C(C)=C\C)C12)O3` (stereo partly drawn) returned a TGI of 16.6 µM.
Still for that read-out and setting: the value for `CCOC(=N)CC(=O)Nc1cccc(C)c1C` was more than 100 µM.

A further assay deals with UACC-257 melanoma. The assay can be described thus: growth of human tumour cells (NCI), 48 h.
For the compound `COc1cc2ccc3c4cc(OC)c(OC(C)C)cc4cnc3c2cc1OC`, the TGI was more than 100 µM.
Turning to `CN1NC(=Nc2ccccc2)Sc2c1cnn(-c1ccccc1)c2=O`, the TGI was more than 100 µM.
`CCc1ccccc1NC(=O)c1sc2nc3c(cc2c1N)C(=O)CCC3`: the GI50 is 27.6 µM and the TGI is more than 100 µM.
The compound `CCOC(=O)c1c[nH]c2oc(/C=N/N3CC(CN4CCOCC4)OC3=O)cc2c1=O` (stereo not drawn) showed a TGI of more than 100 µM.
As for `O=C(Nc1ccc(-n2cc(-c3ccncc3)c(-c3ccc(Cl)c(O)c3)n2)cc1)Nc1ccc(Cl)c(C(F)(F)F)c1`, the GI50 was 1.51 µM and the TGI came out at 3.4 µM.
With `CC(=O)c1sc(-c2nc(C)c(C(=O)/C=C\c3ccc(/C=C\C(=O)c4sc(-c5nc(C)c(C(C)=O)s5)nc4C)cc3)s2)nc1C`, the TGI was more than 100 µM.
The compound `COC(=O)/C(C)=C/[N+](=O)[O-]` had a TGI of 29.3 µM.
The same measure, in the same setting: the value for `CC(C)OC(=O)NNc1cc(Cl)ccc1Cl` was more than 100 µM.
`CCCCOC(=O)NC(=O)c1cn(CCCOC(=O)NCCCCCCNC(=O)OCCCn2cc(C(=O)NC(=O)OCCCC)c(=O)[nH]c2=O)c(=O)[nH]c1=O` gave a TGI of more than 100 µM.
As to `COc1cc(C)c2c(c1C)OC(=O)c1c(C)c(Cl)c(O)c(C=O)c1O2`, the TGI came out at 61.5 µM.
In turn, `COC(=O)/C(C=O)=C/Sc1ccccc1` had a TGI of more than 100 µM.
On the same count and under the same terms, the same measure for `COc1ccc2c(c1)[C@@]13CCCC[C@H]1[C@@H](C2)N(C)CC3=O`: 30.5 µM; for `CC1(C)O/C(=C\c2ccccc2)C(=O)/C(=C/c2ccccc2)O1`: 71.7 µM.
On to `N=C(N)SCc1cccc(-c2nc3ccccc3c(=O)o2)c1`, for which the TGI is more than 100 µM.
On the same count and under the same terms, the same measure for `O=C1CC2C(=O)N(Cc3ccccc3)C1C=C2S(=O)(=O)c1ccccc1` (stereo not drawn): more than 100 µM.
As for `COc1ccc(Nc2c3ccccc3nc3occ(Cl)c23)cc1`, the GI50 was 0.0159 µM and the TGI was determined as 13.3 µM.
For the compound `N.N.N.N.[Cl-].[Co+3].[N-]=[N+]=[N-].[N-]=[N+]=[N-]`, the GI50 is more than 100 µM and the TGI was more than 100 µM.
Consider `CC(C)CCCC(C)[C@H]1CCC2[C@H]3C(CC[C@@]21C)[C@@]1(C)CCC=C[C@]12C[C@@H]2[C@@H]3O` (stereo partly drawn), for which the TGI was more than 100 µM.
`O=C(Nc1cc(Cl)ccc1Cl)C(=O)C(c1cnc2ccccc2n1)[N+](=O)[O-]` (stereo not drawn) registered a TGI of more than 100 µM.
Take `COC(=O)CCC(=O)CC1CC(=O)C2CCCN12` (stereo not drawn): the TGI is more than 100 µM.
On to `COc1ccc(OC)c2c(/C=C/c3ccc(N(C)C)cc3)ccnc12`, for which the TGI was more than 10 µM.
For `C=C1C(=O)O[C@H]2/C=C(/C)C3=CC(=O)[C@@](C)(C[C@@H](OC(=O)/C(C)=C\C)C12)O3` (stereo partly drawn), the TGI was determined as 5.69 µM.
In turn, `O=S1OC2(c3ccccc3-c3ccccc32)c2ccccc21` (stereo not drawn) displayed a TGI of more than 100 µM.
Regarding `CCOC(=N)CC(=O)Nc1cccc(C)c1C`, the TGI is more than 100 µM.

Source of the values: PubChem BioAssay (NCI).
